Reference: PMC9745132, “Visualization of real-time receptor endocytosis in dopamine neurons enabled by NTSR1-Venus knock-in mice” (Frontiers in Cellular Neuroscience, 2022)
Several values for one entry are separate records, joined by “and”; a condition that tells them apart may be missing. Identical values can stand only once. Counter-ions that a name gives are not always drawn. Like-named read-outs stand apart in the source and are kept apart here. *1 amine or outer side, *2 acyl side, *3 side chain or, on linkers, in order; H or OH if unused. Where a SMILES comes first, the peptide text is derived from it. [ ]: non-standard residue; d: D form. X1 = NCCCC[C@H](N)CN([C@@H](CCCCN)C(=O)[*:2])[*:1]; Tle = CC(C)(C)[C@H](N)C(=O)O

Columns and labels:
NTSR1-RlucII = target: T1, NTSR1-RlucII (Mus musculus, UniProt O88319); assay: NTSR1-RlucII internalization ebBRET assay (NTSR1-RlucII donor, rGFP-CAAX acceptor) in HEK293 cells; type: cell-based
T1 construct: expressed in transfected cells; host or cells: HEK293 (HEK293SL)
T1 sequence (O88319 whole entry): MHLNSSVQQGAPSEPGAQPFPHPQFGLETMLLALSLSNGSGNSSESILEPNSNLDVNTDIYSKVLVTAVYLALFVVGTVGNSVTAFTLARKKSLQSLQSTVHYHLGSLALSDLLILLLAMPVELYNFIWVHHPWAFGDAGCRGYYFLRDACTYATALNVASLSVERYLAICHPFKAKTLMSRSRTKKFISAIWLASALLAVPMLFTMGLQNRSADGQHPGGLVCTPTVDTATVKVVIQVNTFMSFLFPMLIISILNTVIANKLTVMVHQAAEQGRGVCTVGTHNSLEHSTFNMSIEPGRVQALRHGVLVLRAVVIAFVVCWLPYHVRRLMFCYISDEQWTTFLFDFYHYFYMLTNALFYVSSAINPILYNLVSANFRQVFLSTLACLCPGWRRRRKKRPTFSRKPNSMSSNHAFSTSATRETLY
Description: Cells were maintained in Dulbecco’s Modified Eagle Medium (DMEM, Wisent, Saint-Jean-Baptiste, QC, Canada) supplemented with 10% fetal bovine serum (FBS, Wisent) and 1% antibiotics [100 U/mL penicillin and 100 μg/mL streptomycin (PS); Wisent]. Cells were grown at 37°C in 5% CO2 and 90% humidity and checked for mycoplasma contamination. Two days prior to experiments, cells were trypsinized (Wisent) and 35,000 cells were transfected with 1 μg of total DNA containing the appropriate expression vectors/biosensors. The total quantity of DNA was completed at 1 μg with salmon sperm DNA (Invitrogen, Waltham, MA, USA). Transfection was performed using the transfecting agent polyethylenimine 25 kD linear (PEI; Polysciences, Warrington, PA, USA) at a ratio of 3:1 PEI/DNA. Cells were then immediately plated onto poly-ornithine (Sigma-Aldrich) coated 96-well white culture plates (PerkinElmer, Waltham, MA, USA).
Forty-eight hours post-transfection, cells were washed once with phosphate-buffered saline (PBS) then incubated 1 h at 37°C in Tyrode buffer (137 mM NaCI, 0.9 mM KCI, 1 mM MgCI2, 1 1.9 mM NaHCO3, 3.6 mM NaH2PO4, 25 mM HEPES, 5.5 mM Glucose, and 1 mM CaCI2, pH 7.4). Cells were then treated with the ligands and prior to measurement treated with the substrate (5 min with 2.5 μM Coelantarazine 400a). Bioluminescence resonance energy transfer (BRET) was then measured between RlucII (BRET energy donor) and rGFP (enhanced bystander ebBRET acceptor)–tagged proteins. BRET values were read for 1 s per well using a Mithras™ LB940 Multimode Microplate Reader (Berthold Technologies, Bad Wildbad, Germany) for concentration–response curves. ebBRET values were obtained by calculating the ratio of the light emitted by the energy acceptor over the light emitted by the energy donor (donor 410 ± 70 nm/acceptor 515 ± 20 nm). Data were collected using the MicroWin 2000 software (Berthold Technologies, Bad Wildbad, Germany). They were then fitted and analyzed in GraphPad Prism (v9.0, GraphPad Software, Inc., San Diego, CA, USA).
A decrease in BRET indicates receptor loss from the plasma membrane. […] Data are expressed as raw BRET signal (Mean ± SEM) from five independent experiments.
We set-up an enhanced bystander bioluminescence energy resonance transfer (ebBRET) assay by fusing RlucII at the NTSR1 C-tail and expressing this construct together with rGFP-CAAX in HEK293 cells (Figure 1A).

[1] = test system: hippocampal neurons from Ntsr1^WT/WT mice; assay: Intracellular calcium release (Fluo-4) in hippocampal neurons from Ntsr1^WT/WT mice; type: cell-based, mouse
[2] = test system: hippocampal neurons from Ntsr1^Venus/Venus mice; assay: Intracellular calcium release (Fluo-4) in hippocampal neurons from Ntsr1^Venus/Venus mice; type: cell-based, mouse
Description: To isolate hippocampal neurons, P0 pups were removed from the cage of NTSR1-Venus homozygous knock-in breeding pairs. Pups were decapitated, brains were removed dorsal side up into fresh ice-cold Hank’s balanced salt solution (HBSS; Gibco, Grand Island, NY, USA), meninges were removed, and hippocampi were dissected into Hibernate A (Gibco, Grand Island, NY, USA) on ice. Tissue dissociation was carried out with the Papain Dissociation System according to the manufacturer’s protocol (Worthington Biochemical Corporation, Lakewood, NJ, USA). Neurons were plated on Poly-D-Lysine (Sigma) coated surfaces at 100,000 cells per 12 mm coverslip (NeuVitro, Camas, WA, USA) in a 24-well plate for immunostaining or 50,000 cells per well of an 8 well chamber slide (Ibidi, Grafelfing, Germany) for calcium measurements. Plating media [Neurobasal A (Gibco, Grand Island, NY, USA), 1% FBS (Fisher Scientific), 2% B-27 (Gibco, Grand Island, NY, USA), 0.5 mM GlutaMAX (Gibco, Grand Island, NY, USA), and 1x Penicillin/Streptomycin (Invitrogen, Waltham, MA, USA)] was exchanged 1 h after plating to maintenance media (Neurobasal A, 2% B-27, 0.5 mM GlutaMAX, and 1x Penicillin/Streptomycin). Half of the volume of media was exchanged for fresh media every 3–4 days. On day in vitro (DIV) 3 Cytosine arabinoside hydrochloride (Sigma) was added to media with a final concentration of 0.1 μM to decrease glial cell proliferation.
Hippocampal neurons were grown until DIV 7. Fluo-4 NW Calcium Assay kit (Thermo Fisher) was used according to the manufacturer’s protocol. Briefly, drugs were prepared at 4 μM stock solutions in the assay buffer provided without probenecid. […] Fluorescence was imaged with a 10x objective on an (Olympus, Shinjuku City, Tokyo, Japan) IX73 microscope (Fluo-4 em. 506 nm).
Live imaging settings of Fluo-4 were as follows, 79 ms exposure, 2 s intervals for 90 cycles (180 s). […] First regions of interest (ROI) were automatically determined using the analyze particles plug in. […] Relative fluorescence is defined as F/F0 where F corresponds to the cell fluorescence and F0 to the basal fluorescence.

NTSR1-Venus = target: T2, NTSR1-Venus (Mus musculus, UniProt O88319); assay: Multiphoton imaging of NTSR1-Venus internalization in acute SN/VTA brain slices; type: cell-based; details: 10 μM on slices recovered in 1 μM SR48692
T2 construct: monitoring endogenous NTSR1-Venus receptor endocytosis could differentiate NTSR1 agonists; endogenous in cells; host or cells: primary hippocampal neurons from homozygous NTSR1-Venus knock-in mice (C57BL/6N background)
T2 sequence (O88319 whole entry): as above
Description: Male and female Ntsr1^Venus/Venus mice aged 5 weeks were anesthetized, and 250 μm-thick coronal slices containing substantia nigra pars compacta and ventral tegmental area were prepared. Cutting solution contained (in mM): 87 NaCl, 25 NaHCO3, 25 glucose, 75 sucrose, 2.5 KCl, 1.25 NaH2PO4, 0.5 CaCl2, and 7 MgCl2; bubbled with 5% CO2/95%O2; 4°C. Following cutting, slices were incubated in the same solution for 30 min at 33°C. For control experiments, slices were subsequently incubated in the same solution at room temperature until imaging. For antagonist experiments, slices were subsequently incubated in cutting solution with 1 μM SR48962 until imaging. SR48962 was prepared as a 1 mM stock in water.
Imaging solution referred to as aCSF contained (in mM): 125 NaCl, 2.5 KCl, 2 CaCl2, 1 MgCl2, 25 NaHCO3, 1.25 NaH2PO4, 25 glucose; bubbled with 5% CO2/95% O2; 31–34°C, ∼310 mOsm. For antagonist-only experiments, 1 μM SR48962 was added to the imaging solution. For antagonist plus agonist experiments, a baseline image was taken with no NTSR1 agonist or antagonist in the imaging solution, and subsequently, 10 μM PD149163 [prepared from a stock solution in water] was added to the imaging solution. As a precautionary measure, all components that were exposed to antagonist were rinsed first with 70% ethanol and then water. All components that were exposed to agonist were replaced between experiments.
For two-photon laser scanning microscopy (2PLSM), a 2-photon source (Coherent Ultra II, Santa Clara, CA, USA) was tuned to 920 nm for imaging. […] Both epi and transfluorescence were detected with R9110 photomultiplier tubes (Hamamatsu, Shizuoka, Japan). Laser power measured at the focal plane under the objective was between 8 and 34 mW. […]
To test whether NTSR1 receptors are indeed being bound by endogenous ligand in acute slice, we compared NTSR1 distribution in slices treated with the NTSR1 specific antagonist, SR48692 ([Gully et al., 1993]). […] NTSR1-Venus puncta were then quantified in the acquired image projections by counting vesicle-sized particles (Figure 5E). […]

CCOC(=O)[C@H](CC(C)C)NC(=O)[C@@H](NC(=O)[C@H](Cc1c[nH]c2ccccc12)NC(=O)[C@@H]1CCCN1C(=O)[C@H](CCCCN)NC[C@@H](N)CCCCN)C(C)(C)C [PD149163, PD149163 tetrahydrochloride hydrate] (H-[X1]PW[Tle]L-OEt; N-terminus and C-terminus assumed)
EC50 (NTSR1-RlucII; NTSR1-RlucII, read-out: potency to induce NTSR1 internalization): 3.07e-07 M
Efficacy (Raw BRET), NTSR1-RlucII internalization (NTSR1-RlucII; decrease in BRET = receptor loss from membrane, mean ± SEM): −0.245 Raw BRET and −0.245 ± 0.008 Raw BRET
EC50 (NTSR1-RlucII; given as LogEC50 (negative sign), mean ± SEM, five independent experiments, read-out: Potency [LogEC50 (M)], NTSR1-RlucII internalization (converted)): 3.07e-07 M
intracellular calcium peak increase ([1]; 0.1 μM): 2 fold
intracellular calcium peak increase ([1]; 1 μM): 2 fold
intracellular calcium peak increase ([2]; 0.1 μM): 2 fold
intracellular calcium peak increase ([2]; 1 μM): 2 fold
vesicle-sized particle counts (NTSR1-Venus puncta) vs antagonist-only treated slices (NTSR1-Venus): significantly higher than antagonist-only treated slices at 15, 30, 45, and 60 min
vesicle-sized particle counts (NTSR1-Venus puncta) vs control slices (NTSR1-Venus): significantly higher than controls at 30, 45, and 60 min
